Laboratory results reported in patent US20260007681A1, “INDOLE DERIVATIVES AS ESTROGEN RECEPTOR DEGRADERS” (REGENTS OF THE UNIVERSITY OF MICHIGAN, priority 2022, published 2026).
Where two headings read alike, the source gives them in different places.

Tests used:
ER = ER (Homo sapiens (Human), UniProt P03372); experiment: In-cell western blot analysis of relative ER percentage (Compounds B1-B278); format: cell-based; conditions: ER degradation, 16 hours, read-out: ICW DC50
Outline: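 In-cell western: after 16 h compound exposure (0.5% DMSO final), fixed and permeabilized cells are probed with anti-ER plus anti-GAPDH and near-infrared secondaries. Relative ER percentage compares treated wells against untreated and DMSO wells taken as 100%; seeding 40,000 or 10,000 cells/well.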

[1] = Cell growth assay (WST-8) (Compounds B1-B278); format: cell-based; conditions: T47D cell line, WST-8, 4 days, read-out: Cell Growth Inhibition in T47D cell line IC50
Outline: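 Read-out is WST-8 absorbance at 450 nm (2.5 h, 37° C) as a fraction of vehicle control, from three separate repeats. Compound exposure lasted 4 days, starting one day after plating 1500 cells/well.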

Sequence of ER (P03372 whole entry): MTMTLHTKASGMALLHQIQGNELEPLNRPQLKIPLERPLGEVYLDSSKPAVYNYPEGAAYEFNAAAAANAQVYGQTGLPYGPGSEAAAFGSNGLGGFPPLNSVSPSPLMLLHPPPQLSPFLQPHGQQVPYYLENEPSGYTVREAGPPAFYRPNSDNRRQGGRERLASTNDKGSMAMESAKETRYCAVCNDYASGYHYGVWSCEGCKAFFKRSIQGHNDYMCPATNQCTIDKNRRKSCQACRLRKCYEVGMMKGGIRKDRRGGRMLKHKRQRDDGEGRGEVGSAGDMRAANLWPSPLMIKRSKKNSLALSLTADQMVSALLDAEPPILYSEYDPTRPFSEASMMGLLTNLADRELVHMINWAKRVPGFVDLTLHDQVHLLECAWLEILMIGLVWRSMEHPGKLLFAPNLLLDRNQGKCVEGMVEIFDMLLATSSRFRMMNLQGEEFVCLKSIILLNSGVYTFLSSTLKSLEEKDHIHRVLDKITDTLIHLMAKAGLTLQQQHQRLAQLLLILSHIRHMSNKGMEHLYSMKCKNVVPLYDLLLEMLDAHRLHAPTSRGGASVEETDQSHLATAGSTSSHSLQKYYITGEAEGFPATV

Which DC50 (ER) does the source give for `C[C@@H]1Cc2c([nH]c3ccccc23)[C@@H](c2cnc(N3CC4(CCC(CN5CCN6c7ccc8c(c7OC[C@@H]6C5)CN(C5CCC(=O)NC5=O)C8=O)CC4)C3)nc2)N1CC(F)F` (stereo partly drawn) [Compound B263, 3-((S)-7-((2-(5-((1R,3R)-2-(2,2-difluoroethyl)-3-methyl-2,3,4,9-tetrahydro-1H-pyrido[3,4-b]indol-1-yl)pyrimidin-2-yl)-2-azaspiro[3.5]nonan-7-yl)methyl)-1-oxo-1,3,5,5a,6,7,8,9-octahydro-2H-pyrazino[1′,2′:4,5][1,4]oxazino[2,3-e]isoindol-2-yl)piperidine-2,6-dione] here?
Its DC50 is 10 to 100 nM.

What about the IC50 ([1]; 96 h) of the same molecule?
The IC50 was 1 to 10 nM.

For `C[C@@H]1Cc2c([nH]c3ccccc23)[C@@H](c2cnc(N3CCC4(CC3)CC(CN3CCN5c6ccc7c(c6OC[C@@H]5C3)CN(C3CCC(=O)NC3=O)C7=O)C4)nc2)N1CC(F)F` (stereo partly drawn) [Compound B264, 3-((S)-7-((7-(5-((1R,3R)-2-(2,2-difluoroethyl)-3-methyl-2,3,4,9-tetrahydro-1H-pyrido[3,4-b]indol-1-yl)pyrimidin-2-yl)-7-azaspiro[3.5]nonan-2-yl)methyl)-1-oxo-1,3,5,5a,6,7,8,9-octahydro-2H-pyrazino[1′,2′:4,5][1,4]oxazino[2,3-e]isoindol-2-yl)piperidine-2,6-dione], which DC50 (ER) is on record?
The DC50 was 10 to 100 nM.

What about the IC50 ([1]; 96 h) of the same molecule?
The IC50 was 1 to 10 nM.

What does the source list for `C[C@@H]1Cc2c([nH]c3ccccc23)[C@@H](c2c(F)cc(N3CCC4(CC3)CC(CN3CCN5c6ccc7c(c6OC[C@H]5C3)CN(C3CCC(=O)NC3=O)C7=O)CO4)cc2F)N1CC(F)(F)CO` (stereo partly drawn) [Compound B266, 3-((5aR)-7-((8-(4-((1R,3R)-2-(2,2-difluoro-3-hydroxypropyl)-3-methyl-2,3,4,9-tetrahydro-1H-pyrido[3,4-b]indol-1-yl)-3,5-difluorophenyl)-1-oxa-8-azaspiro[4.5]decan-3-yl)methyl)-1-oxo-1,3,5,5a,6,7,8,9-octahydro-2H-pyrazino[1′,2′:4,5][1,4]oxazino[2,3-e]isoindol-2-yl)piperidine-2,6-dione]?
DC50 (ER): 10 to 100 nM; IC50 ([1]; 96 h): 1 to 10 nM

Which DC50 (ER) does the source give for `C[C@@H]1CC2c3ccccc3NC2[C@@H](c2c(F)cc(N3CCC4(CC3)CC(CN3CCN5c6cc7c(cc6OC[C@H]5C3)C(=O)N(C3CCC(=O)NC3=O)C7)CO4)cc2F)N1CC(F)(F)CO` (stereo partly drawn) [Compound B267, 3-((4aR)-3-((8-(4-((1R,3R)-2-(2,2-difluoro-3-hydroxypropyl)-3-methyl-2,3,4,4a,9,9a-hexahydro-1H-pyrido[3,4-b]indol-1-yl)-3,5-difluorophenyl)-1-oxa-8-azaspiro[4.5]decan-3-yl)methyl)-8-oxo-1,2,3,4,4a,5,8,10-octahydro-9H-pyrazino[1′,2′:4,5][1,4]oxazino[2,3-f]isoindol-9-yl)piperidine-2,6-dione] here?
Its DC50 is over 100 nM.

And the IC50 ([1]; 96 h)?
Its IC50 is over 10 nM.

With `C[C@@H]1Cc2c([nH]c3ccccc23)[C@@H](c2ccc(N3CCC4(CC3)CC(CN3CCN5c6ccc7c(c6OC[C@H]5C3)CN(C3CCC(=O)NC3=O)C7=O)CO4)cn2)N1CC(F)(F)F` (stereo partly drawn) [Compound B268, (3S)-3-((5aR)-7-((8-(6-((1S,3R)-3-methyl-2-(2,2,2-trifluoroethyl)-2,3,4,9-tetrahydro-1H-pyrido[3,4-b]indol-1-yl)pyridin-3-yl)-1-oxa-8-azaspiro[4.5]dccan-3-yl)methyl)-1-oxo-1,3,5,5a,6,7,8,9-octahydro-2H-pyrazino[1′,2′:4,5][1,4]oxazino[2,3-e]isoindol-2-yl)piperidine-2,6-dione] as the molecule, how does the DC50 (ER) read?
Its DC50 is 10 to 100 nM.

What about the IC50 ([1]; 96 h) of the same molecule?
Its IC50 is 1 to 10 nM.

For `C[C@@H]1Cc2c([nH]c3ccccc23)[C@@H](c2ccc(N3CCC4(CC3)CC(CN3CCN5c6cc7c(cc6OC[C@@H]5C3)C(=O)N(C3CCC(=O)NC3=O)C7)CO4)cn2)N1CC(F)(F)F` (stereo partly drawn) [Compound B269, 3-((4aS)-3-((8-(6-((1S,3R)-3-methyl-2-(2,2,2-trifluoroethyl)-2,3,4,9-tetrahydro-1H-pyrido[3,4-b]indol-1-yl)pyridin-3-yl)-1-oxa-8-azaspiro[4.5]decan-3-yl)methyl)-8-oxo-1,2,3,4,4a,5,8,10-octahydro-9H-pyrazino[1′,2′:4,5][1,4]oxazino[2,3-f]isoindol-9-yl)piperidine-2,6-dione], which DC50 (ER) is on record?
Its DC50 is 10 to 100 nM.

What about the IC50 [1] of the same molecule?
The IC50 was 1 to 10 nM.

For `C[C@@H]1Cc2c([nH]c3ccccc23)[C@@H](c2c(F)cc(N3CCC4(CC3)OCC(CN3CCN5c6cc7c(cc6OC[C@@H]5C3)C(=O)N(C3CCC(=O)NC3=O)C7)CO4)cc2F)N1CC(F)(F)CO` (stereo partly drawn) [Compound B270, 3-((S)-3-((9-(4-((1R,3R)-2-(2,2-difluoro-3-hydroxypropyl)-3-methyl-2,3,4,9-tetrahydro-1H-pyrido[3,4-b]indol-1-yl)-3,5-difluorophenyl)-1,5-dioxa-9-azaspiro[5.5]undecan-3-yl)methyl)-8-oxo-1,2,3,4,4a,5,8,10-octahydro-9H-pyrazino[1′,2′:4,5][1,4]oxazino[2,3-f]isoindol-9-yl)piperidine-2,6-dione], which DC50 (ER) is on record?
Its DC50 is 10 to 100 nM.

What about the IC50 ([1]; 96 h) of the same molecule?
Its IC50 is under 1 nM.

Which results are given for `COc1cc(N2CCC3(CC2)OCC(CN2CCN4c5ccc6c(c5OC[C@@H]4C2)CN([C@@H]2CCC(=O)NC2=O)C6=O)CO3)ccc1[C@@H]1c2[nH]c3ccccc3c2C[C@@H](C)N1CC(F)F` [Compound B271, (R)-3-((S)-7-((9-(4-((1R,3R)-2-(2,2-difluoroethyl)-3-methyl-2,3,4,9-tetrahydro-1H-pyrido[3,4-b]indol-1-yl)-3-methoxyphenyl)-1,5-dioxa-9-azaspiro[5.5]undecan-3-yl)methyl)-1-oxo-1,3,5,5a,6,7,8,9-octahydro-2H-pyrazino[1′,2′:4,5][1,4]oxazino[2,3-e]isoindol-2-yl)piperidine-2,6-dione]?
DC50 (ER): 10 to 100 nM; IC50 ([1]; 96 h): < 1 nM

What does the source list for `C[C@@H]1Cc2c([nH]c3ccccc23)[C@@H](c2cnc(N3CCC4(CC3)OCC(CN3CCN5c6ccc7c(c6OC[C@H]5C3)CN([C@H]3CCC(=O)NC3=O)C7=O)CO4)nc2)N1CC(F)(F)CO` [Compound B272, (S)-3-((R)-7-((9-(5-((1R,3R)-2-(2,2-difluoro-3-hydroxypropyl)-3-methyl-2,3,4,9-tetrahydro-1H-pyrido[3,4-b]indol-1-yl)pyrimidin-2-yl)-1,5-dioxa-9-azaspiro[5.5]undecan-3-yl)methyl)-1-oxo-1,3,5,5a,6,7,8,9-octahydro-2H-pyrazino[1′,2′:4,5][1,4]oxazino[2,3-e]isoindol-2-yl)piperidine-2,6-dione]?
DC50 (ER): 10 to 100 nM; IC50 ([1]; 96 h): < 1 nM

With `COc1cc(N2CCC3(CC2)OCC(CN2CCN4c5cc6c(cc5OC[C@H]4C2)C(=O)N(C2CCC(=O)NC2=O)C6)CO3)ccc1[C@@H]1c2[nH]c3ccccc3c2C[C@@H](C)N1CC(F)F` (stereo partly drawn) [Compound B273, 3-((R)-3-((9-(4-((1R,3R)-2-(2,2-difluoroethyl)-3-methyl-2,3,4,9-tetrahydro-1H-pyrido[3,4-b]indol-1-yl)-3-methoxyphenyl)-1,5-dioxa-9-azaspiro [5.5]undecan-3-yl)methyl)-8-oxo-1,2,3,4,4a,5,8,10-octahydro-9H-pyrazino[1′,2′:4,5][1,4]oxazino[2,3-f]isoindol-9-yl)piperidine-2,6-dione] as the molecule, how does the DC50 (ER) read?
The DC50 was 10 to 100 nM.

And the IC50 ([1]; 96 h)?
The IC50 was 1 to 10 nM.

With `COc1cc(N2CCC3(CC2)OCC(CN2CCC4(CC2)COc2c4ccc4c2CN(C2CCC(=O)NC2=O)C4=O)CO3)ccc1[C@@H]1c2[nH]c3ccccc3c2C[C@@H](C)N1CC(F)F` (stereo partly drawn) [Compound B274, 3-(1′-((9-(4-((1R,3R)-2-(2,2-difluoroethyl)-3-methyl-2,3,4,9-tetrahydro-1H-pyrido[3,4-b]indol-1-yl)-3-methoxyphenyl)-1,5-dioxa-9-azaspiro[5.5]undecan-3-yl)methyl)-6-oxo-6,8-dihydro-2H,7H-spiro[furo[2,3-e]isoindole-3,4′-piperidin]-7-yl)piperidine-2,6-dione] as the molecule, how does the DC50 (ER) read?
Its DC50 is 10 to 100 nM.

What about the IC50 ([1]; 96 h) of the same molecule?
The IC50 was under 1 nM.

What does the source list for `C[C@@H]1Cc2c([nH]c3ccccc23)[C@@H](c2cnc(N3CC4(C3)OCC(CN3CCN5c6ccc7c(c6OC[C@H]5C3)CN([C@H]3CCC(=O)NC3=O)C7=O)CO4)nc2)N1CC(F)(F)CO` [Compound B275, (S)-3-((R)-7-((2-(5-((1R,3R)-2-(2,2-difluoro-3-hydroxypropyl)-3-methyl-2,3,4,9-tetrahydro-1H-pyrido[3,4-b]indol-1-yl)pyrimidin-2-yl)-5,9-dioxa-2-azaspiro[3.5]nonan-7-yl)methyl)-1-oxo-1,3,5,5a,6,7,8,9-octahydro-2H-pyrazino[1′,2′:4,5][1,4]oxazino[2,3-e]isoindol-2-yl)piperidine-2,6-dione]?
DC50 (ER): > 100 nM; IC50 ([1]; 96 h): > 10 nM

For `C[C@@H]1Cc2c([nH]c3ccccc23)[C@@H](c2cnc(N3CC4(C3)OCC(CN3CCN5c6cc7c(cc6OC[C@@H]5C3)C(=O)N(C3CCC(=O)NC3=O)C7)CO4)nc2)N1CC(F)(F)CO` (stereo partly drawn) [Compound B276, 3-((S)-3-((2-(5-((1R,3R)-2-(2,2-difluoro-3-hydroxypropyl)-3-methyl-2,3,4,9-tetrahydro-1H-pyrido[3,4-b]indol-1-yl)pyrimidin-2-yl)-5,9-dioxa-2-azaspiro[3.5]nonan-7-yl)methyl)-8-oxo-1,2,3,4,4a,5,8,10-octahydro-9H-pyrazino[1′,2′:4,5][1,4]oxazino[2,3-f]isoindol-9-yl)piperidine-2,6-dione], which DC50 (ER) is on record?
The DC50 was over 100 nM.

And the IC50 ([1]; 96 h)?
Its IC50 is over 10 nM.

With `COc1cc(N2CC3(CCC(CN4CCN5c6ccc7c(c6OC[C@H]5C4)CN(C4CCC(=O)NC4=O)C7=O)CO3)C2)ccc1[C@@H]1c2[nH]c3ccccc3c2C[C@@H](C)N1CC(F)F` (stereo partly drawn) [Compound B277, 3-((5aR)-7-((2-(4-((1R,3R)-2-(2,2-difluoroethyl)-3-methyl-2,3,4,9-tetrahydro-1H-pyrido[3,4-b]indol-1-yl)-3-methoxyphenyl)-5-oxa-2-azaspiro[3.5]nonan-7-yl)methyl)-1-oxo-1,3,5,5a,6,7,8,9-octahydro-2H-pyrazino[1′,2′:4,5][1,4]oxazino[2,3-e]isoindol-2-yl)piperidine-2,6-dione] as the molecule, how does the DC50 (ER) read?
The DC50 was 10 to 100 nM.

What about the IC50 ([1]; 96 h) of the same molecule?
Its IC50 is 1 to 10 nM.
